One block for each compound: values may come before it. Activity calls are given as the source filed them.
Legend:
[1] = molecular target: Sphingosine 1-phosphate receptor 2 (Homo sapiens, UniProt O95136); assay: Dose Response Cell Based Assay for Agonists of the S1P2 Receptor of Purchased Analogues. [Related pubchem assays: 729, 843, 854, 736 ]; assay type: functional
Protein skinhead-1 = molecular target: T1, Protein skinhead-1 (Caenorhabditis elegans, UniProt P34707); assay type: functional
T1 sequence (P34707 whole entry): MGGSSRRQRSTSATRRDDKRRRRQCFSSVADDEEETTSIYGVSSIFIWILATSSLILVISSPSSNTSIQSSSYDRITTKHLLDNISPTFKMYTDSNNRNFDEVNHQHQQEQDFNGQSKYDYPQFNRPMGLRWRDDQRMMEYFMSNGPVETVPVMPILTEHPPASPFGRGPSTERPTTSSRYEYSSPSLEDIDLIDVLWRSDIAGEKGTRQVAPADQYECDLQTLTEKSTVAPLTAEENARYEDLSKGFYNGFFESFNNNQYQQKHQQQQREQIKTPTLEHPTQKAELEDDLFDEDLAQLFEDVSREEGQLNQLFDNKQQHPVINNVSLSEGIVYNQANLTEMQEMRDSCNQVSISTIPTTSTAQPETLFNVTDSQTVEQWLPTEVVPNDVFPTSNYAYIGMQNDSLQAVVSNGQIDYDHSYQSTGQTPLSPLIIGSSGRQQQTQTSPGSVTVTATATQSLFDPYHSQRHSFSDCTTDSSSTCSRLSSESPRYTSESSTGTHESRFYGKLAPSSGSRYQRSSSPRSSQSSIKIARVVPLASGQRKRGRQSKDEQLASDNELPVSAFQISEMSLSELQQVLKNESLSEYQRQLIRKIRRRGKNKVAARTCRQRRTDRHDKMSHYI

[2] = molecular target: Neuropeptide Y receptor type 1 (Homo sapiens, UniProt P25929); assay type: functional;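 further: HEK293 cells with a CNG channel challenged with NPY then isoproterenol; potency as antagonist that reverses NPY suppression of cAMP signal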
Neuropeptide Y receptor type 1, sequence (P25929 whole entry): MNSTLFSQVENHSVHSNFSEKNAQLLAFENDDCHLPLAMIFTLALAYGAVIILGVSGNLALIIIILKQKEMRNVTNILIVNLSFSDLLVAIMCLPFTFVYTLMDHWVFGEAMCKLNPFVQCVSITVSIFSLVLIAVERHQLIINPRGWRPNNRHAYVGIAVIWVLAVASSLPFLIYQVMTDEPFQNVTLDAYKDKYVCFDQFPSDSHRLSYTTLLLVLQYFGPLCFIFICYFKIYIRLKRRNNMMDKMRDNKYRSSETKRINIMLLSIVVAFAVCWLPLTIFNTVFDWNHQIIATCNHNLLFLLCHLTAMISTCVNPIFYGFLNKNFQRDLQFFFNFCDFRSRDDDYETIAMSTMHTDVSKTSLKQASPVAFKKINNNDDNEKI

[3] = molecular target: Neuropeptide Y receptor type 2 (Homo sapiens, UniProt P49146); assay type: functional, cell-based;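 further: HEK293 cells expressing the receptor and a CNG channel; stimulus was NPY near EC95 followed by isoproterenol to raise cAMP; antagonist potency measured as restoring cAMP signal that NPY suppresses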
Neuropeptide Y receptor type 2, sequence (P49146 whole entry): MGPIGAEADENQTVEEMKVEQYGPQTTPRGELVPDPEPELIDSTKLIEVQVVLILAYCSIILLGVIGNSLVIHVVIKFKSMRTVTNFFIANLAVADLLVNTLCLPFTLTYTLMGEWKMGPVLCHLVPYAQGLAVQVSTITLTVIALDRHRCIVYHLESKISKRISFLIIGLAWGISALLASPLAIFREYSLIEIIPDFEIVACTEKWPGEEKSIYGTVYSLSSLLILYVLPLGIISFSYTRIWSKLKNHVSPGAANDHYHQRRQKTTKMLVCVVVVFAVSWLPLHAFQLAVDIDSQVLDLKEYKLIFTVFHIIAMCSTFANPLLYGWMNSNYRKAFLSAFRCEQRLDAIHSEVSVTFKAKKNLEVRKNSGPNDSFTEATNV

Estrogen receptor beta [4] = molecular target: T2, Estrogen receptor beta (Homo sapiens, UniProt Q92731); assay: blockers of SRC-3 recruitment to ERβ – biochemical, ELISA, streptavidin-HRP readout, orthogonal assay, confirmation (AID 1060)
T2 sequence (Q92731 whole entry): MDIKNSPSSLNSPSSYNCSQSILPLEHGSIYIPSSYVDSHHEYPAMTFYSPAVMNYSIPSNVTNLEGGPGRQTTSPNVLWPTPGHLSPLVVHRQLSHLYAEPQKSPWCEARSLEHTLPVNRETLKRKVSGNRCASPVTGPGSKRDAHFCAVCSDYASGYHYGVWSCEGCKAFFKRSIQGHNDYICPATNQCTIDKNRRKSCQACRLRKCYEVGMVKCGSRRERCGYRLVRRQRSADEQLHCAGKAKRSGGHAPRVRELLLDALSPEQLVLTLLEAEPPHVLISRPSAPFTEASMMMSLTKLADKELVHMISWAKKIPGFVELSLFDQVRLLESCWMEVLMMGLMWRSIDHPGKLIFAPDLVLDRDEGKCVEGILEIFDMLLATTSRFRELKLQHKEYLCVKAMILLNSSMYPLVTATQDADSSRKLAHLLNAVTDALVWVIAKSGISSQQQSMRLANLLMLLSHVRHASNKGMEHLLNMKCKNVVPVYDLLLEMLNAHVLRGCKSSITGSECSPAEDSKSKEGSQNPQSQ

Estrogen receptor = Estrogen receptor (Homo sapiens, UniProt P03372);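 further: potency for inhibiting coactivator peptide recruitment to the receptor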
Estrogen receptor, sequence (P03372 whole entry): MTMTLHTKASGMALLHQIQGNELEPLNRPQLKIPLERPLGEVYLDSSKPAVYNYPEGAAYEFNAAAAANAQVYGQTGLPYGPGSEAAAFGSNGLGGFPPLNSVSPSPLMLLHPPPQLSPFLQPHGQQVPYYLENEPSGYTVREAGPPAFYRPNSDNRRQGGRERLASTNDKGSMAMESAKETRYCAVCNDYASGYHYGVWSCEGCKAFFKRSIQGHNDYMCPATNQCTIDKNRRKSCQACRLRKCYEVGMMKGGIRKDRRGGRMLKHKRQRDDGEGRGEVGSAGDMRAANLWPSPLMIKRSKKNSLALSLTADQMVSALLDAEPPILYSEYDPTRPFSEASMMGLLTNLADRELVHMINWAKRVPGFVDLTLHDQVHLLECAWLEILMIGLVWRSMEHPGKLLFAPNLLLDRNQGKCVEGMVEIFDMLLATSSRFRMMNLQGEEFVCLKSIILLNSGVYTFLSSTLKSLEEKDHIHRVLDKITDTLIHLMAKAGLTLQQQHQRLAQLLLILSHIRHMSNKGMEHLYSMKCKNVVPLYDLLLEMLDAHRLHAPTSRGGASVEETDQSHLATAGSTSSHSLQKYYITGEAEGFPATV

Estrogen receptor beta [5] = molecular target: T2, Estrogen receptor beta
H9c2 = assay: cells; assay type: functional, cell-based; settings: Rattus norvegicus, H9c2, Myocardium;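 further: confirmatory concentration-response retest of ultra-high-throughput screening hits for modulation of myocardial damage; cell death induced by hydrogen peroxide oxidative stress; compound pretreatment for 60 min then peroxide exposure for 2 h; potency is for protecting the cells against peroxide damage rather than for killing them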
[6] = molecular target: T3, E3 ubiquitin-protein ligase XIAP (Homo sapiens, UniProt P98170); assay: small molecules displacing peptide from XIAP – biochemical, IAP family, fluorescence polarization (AID 1018); assay type: functional
T3 sequence (P98170 whole entry): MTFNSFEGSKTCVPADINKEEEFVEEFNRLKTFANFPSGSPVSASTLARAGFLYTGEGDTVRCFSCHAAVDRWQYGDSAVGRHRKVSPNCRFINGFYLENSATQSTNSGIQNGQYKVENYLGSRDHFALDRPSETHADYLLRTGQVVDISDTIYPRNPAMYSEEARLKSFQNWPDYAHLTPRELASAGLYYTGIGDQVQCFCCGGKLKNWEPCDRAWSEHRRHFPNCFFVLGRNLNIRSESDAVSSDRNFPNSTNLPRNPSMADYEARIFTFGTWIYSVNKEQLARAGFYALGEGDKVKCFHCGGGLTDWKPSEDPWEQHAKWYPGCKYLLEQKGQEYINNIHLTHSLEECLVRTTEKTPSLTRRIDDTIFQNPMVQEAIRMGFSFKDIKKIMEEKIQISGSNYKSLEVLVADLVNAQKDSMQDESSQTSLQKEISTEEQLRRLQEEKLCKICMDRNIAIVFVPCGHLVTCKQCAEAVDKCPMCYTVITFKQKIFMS

[7] = molecular target: T3, E3 ubiquitin-protein ligase XIAP; assay: Counter Screen using XIAP-Bir3 for Chemical Antagonists of Bir1/2 domains of IAP-family anti-apoptotic proteins. [Related pubchem assays (depositor defined):AID1018, AID1449, AID1514, AID1638, AID1749, AID1750, AID488957, AID488963]
[8] = molecular target: Diphosphomevalonate decarboxylase (Streptococcus pneumoniae serotype 2 (strain D39 / NCTC 7466), UniProt Q9FD53); assay: diphosphomevalonate decarboxylase inhibitor confirmation – biochemical, cuvette format, coupled NADH fluorescence (AID 1028); assay type: functional
Diphosphomevalonate decarboxylase, sequence (Q9FD53 whole entry): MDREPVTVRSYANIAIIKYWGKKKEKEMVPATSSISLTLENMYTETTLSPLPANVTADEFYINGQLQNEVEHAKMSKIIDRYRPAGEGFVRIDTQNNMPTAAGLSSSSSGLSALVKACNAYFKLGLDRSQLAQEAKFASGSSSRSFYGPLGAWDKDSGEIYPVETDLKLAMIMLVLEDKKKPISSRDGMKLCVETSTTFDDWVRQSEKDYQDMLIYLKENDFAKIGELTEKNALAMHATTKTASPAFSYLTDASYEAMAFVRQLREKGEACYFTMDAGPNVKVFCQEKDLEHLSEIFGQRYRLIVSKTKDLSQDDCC

[9] = molecular target: Transitional endoplasmic reticulum ATPase (Homo sapiens, UniProt P55072); assay: Luminescence dose response biochemical high throughput screening assay for inhibitors of the p97 ATPase: synthesized compounds. [Related pubchem assays: 1481, 1517 ]
Transitional endoplasmic reticulum ATPase (Homo sapiens, UniProt P55072), sequence (P55072 whole entry): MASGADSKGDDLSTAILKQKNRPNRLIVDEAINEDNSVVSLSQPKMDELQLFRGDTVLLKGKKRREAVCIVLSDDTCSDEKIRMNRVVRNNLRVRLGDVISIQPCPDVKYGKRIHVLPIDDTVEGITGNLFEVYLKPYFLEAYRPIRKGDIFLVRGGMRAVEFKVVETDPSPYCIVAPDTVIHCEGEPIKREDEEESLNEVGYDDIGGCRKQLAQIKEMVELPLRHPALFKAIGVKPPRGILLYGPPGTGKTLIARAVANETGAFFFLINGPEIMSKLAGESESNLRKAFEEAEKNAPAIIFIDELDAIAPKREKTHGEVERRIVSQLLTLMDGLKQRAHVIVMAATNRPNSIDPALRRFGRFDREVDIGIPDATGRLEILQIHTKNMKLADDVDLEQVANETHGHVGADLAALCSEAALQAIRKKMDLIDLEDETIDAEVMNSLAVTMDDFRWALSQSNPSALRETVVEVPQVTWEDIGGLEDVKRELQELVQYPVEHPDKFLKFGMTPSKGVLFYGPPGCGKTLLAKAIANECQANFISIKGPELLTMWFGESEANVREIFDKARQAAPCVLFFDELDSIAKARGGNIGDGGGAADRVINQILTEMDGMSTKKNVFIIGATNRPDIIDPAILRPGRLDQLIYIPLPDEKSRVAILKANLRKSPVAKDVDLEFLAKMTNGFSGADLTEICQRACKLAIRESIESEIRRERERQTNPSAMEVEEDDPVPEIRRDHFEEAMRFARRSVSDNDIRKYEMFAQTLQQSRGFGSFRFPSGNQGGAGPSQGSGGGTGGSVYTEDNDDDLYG

[10] = molecular target: Transitional endoplasmic reticulum ATPase (Homo sapiens, UniProt P55072, C522A); assay: Luminescence counterscreen assay for p97 inhibitors: dose response biochemical high throughput screening assay to identify inhibitors of the C522A mutant p97 ATPase: synthesized compounds. [Related pubchem assays: 1481, 1517, 1551 ]
Transitional endoplasmic reticulum ATPase (Homo sapiens, UniProt P55072, C522A), sequence (P55072 2-806 C522A limits assumed): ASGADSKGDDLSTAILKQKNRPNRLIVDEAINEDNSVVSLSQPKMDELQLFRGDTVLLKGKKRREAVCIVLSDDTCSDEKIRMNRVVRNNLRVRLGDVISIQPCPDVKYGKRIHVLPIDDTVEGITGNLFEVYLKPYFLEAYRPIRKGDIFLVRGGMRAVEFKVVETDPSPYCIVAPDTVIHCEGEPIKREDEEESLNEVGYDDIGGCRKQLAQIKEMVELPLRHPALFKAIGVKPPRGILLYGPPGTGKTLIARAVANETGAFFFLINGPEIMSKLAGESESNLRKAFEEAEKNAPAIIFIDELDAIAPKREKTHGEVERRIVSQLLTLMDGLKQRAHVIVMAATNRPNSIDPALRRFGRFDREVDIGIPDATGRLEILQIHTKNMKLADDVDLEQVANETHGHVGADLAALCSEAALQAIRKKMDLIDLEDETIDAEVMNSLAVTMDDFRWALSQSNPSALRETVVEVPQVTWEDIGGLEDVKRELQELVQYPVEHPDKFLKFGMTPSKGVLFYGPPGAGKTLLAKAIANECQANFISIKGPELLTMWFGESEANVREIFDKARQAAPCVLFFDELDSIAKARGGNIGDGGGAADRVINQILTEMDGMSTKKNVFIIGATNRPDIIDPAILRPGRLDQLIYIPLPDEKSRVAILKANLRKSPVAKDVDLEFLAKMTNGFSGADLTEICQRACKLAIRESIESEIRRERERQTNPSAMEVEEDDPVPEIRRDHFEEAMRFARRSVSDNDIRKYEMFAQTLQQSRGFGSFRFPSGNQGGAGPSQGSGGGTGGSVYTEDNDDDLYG

Sphingosine 1-phosphate receptor 2, sequence (O95136 whole entry): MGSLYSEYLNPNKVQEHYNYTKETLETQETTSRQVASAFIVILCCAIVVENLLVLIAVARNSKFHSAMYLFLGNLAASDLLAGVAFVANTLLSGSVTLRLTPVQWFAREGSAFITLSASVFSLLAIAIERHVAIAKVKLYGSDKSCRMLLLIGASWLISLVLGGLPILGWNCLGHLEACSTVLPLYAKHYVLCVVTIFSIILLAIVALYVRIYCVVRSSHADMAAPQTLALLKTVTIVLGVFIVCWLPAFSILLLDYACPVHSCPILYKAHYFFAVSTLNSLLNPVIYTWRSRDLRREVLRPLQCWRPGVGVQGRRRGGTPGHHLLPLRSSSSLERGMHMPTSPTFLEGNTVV

- EC50 [1]: > 30 µM (not active)
SMILES: Cc1cc(C)nc(SCC(=O)OCC(=O)c2cc(C)n(Cc3ccccc3)c2C)n1

- IC50 (Protein skinhead-1): > 100 µM (inactive)
- IC50 [2]: 11.3 µM (not active)
- IC50 [3]: 18.3 µM (not active)
SMILES: O=C(CSc1nc2ccccc2o1)c1ccc2c(c1)OCCO2

- IC50 (Estrogen receptor beta [4]): 0.155 µM (not active)
- IC50 (Estrogen receptor): > 50 µM (not active)
- IC50 (Estrogen receptor beta [5]): > 50 µM (not active)
SMILES: Cc1occc1C(=O)Nc1ccccc1NC(=O)c1ccoc1C

SMILES: Cc1ccc2cc3c(NC(=O)c4cccnc4)nn(C)c3nc2c1
- IC50 (H9c2): > 79 µM (inactive)
- IC50 (Protein skinhead-1): > 100 µM (inactive)
- IC50 [6]: > 100 µM (not active)
- IC50 [7]: > 100 µM (inactive)

SMILES: CCCNC(=O)c1ccc(-n2sc3ccccc3c2=O)cc1
- IC50 [8]: 7.48 µM (active)

- IC50 [9]: > 50 µM (not active)
- IC50 [10]: > 50 µM (not active)
SMILES: N#Cc1ccc(Nc2nc(-c3ccc(C#N)cc3)cs2)cc1
